Legend:
[1] = Solubility enhancing effect of cyclodextrin derivative on aprepitant in aqueous medium; type: physicochemical
[2] = cited from earlier work

C[C@@H](O[C@H]1OCCN(Cc2n[nH]c(=O)[nH]2)[C@H]1c1ccc(F)cc1)c1cc(C(F)(F)F)cc(C(F)(F)F)c1 [Aprepitant]
Increase in Aprepitant Solubility ([1]; Cyclodextrin Derivative 0 mg/mL): 0% | Increase in Aprepitant Solubility ([1]; Cyclodextrin Derivative 32 mg/mL): 105% | Increase in Aprepitant Solubility ([1]; Cyclodextrin Derivative 64 mg/mL): 300% | Increase in Aprepitant Solubility ([1]; Cyclodextrin Derivative 128 mg/mL): 748% | Increase in Aprepitant Solubility ([1]; Cyclodextrin Derivative 160 mg/mL): 1039% | Increase in Aprepitant Solubility ([1]; Cyclodextrin Derivative 180 mg/mL): 1244% | Increase in Aprepitant Solubility ([1]; Cyclodextrin Derivative 200 mg/mL): 1322% | Increase in Aprepitant Solubility ([1]; Cyclodextrin Derivative 255 mg/mL): 1717% | solubility in non-polar solvents such as oils ([2]; non-polar solvents such as oils): reasonably high | solubility in water ([2]; water): very limited

— patent US11065265B2, “Compositions of fosaprepitant and methods of preparation” (SPES PHARMACEUTICALS INC., priority 2018, dated 2021)
